We go through 14 compounds from PubChem BioAssay (NCI).

Test systems include EKVX NSCLC; SN12C renal; SF-295 CNS; OVCAR-3 ovarian; HCC-2998 colon; SF-268 CNS; HT29 colon; SW-620 colon; RPMI-8226 leukemia; SK-MEL-5 melanoma; DU-145 prostate; MDA-N.
Holding throughout (test): NCI tumour cell line growth inhibition, 48 h

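These data come from cells grown in 96-well plates and exposed to compound for 48 hours at five concentrations. At the TGI there is no net growth.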

As for `Cc1ccc(NC(=O)C(=O)Cc2cc[n+]([O-])cc2)cc1`, the TGI in the assay with EKVX NSCLC, in the assay with SN12C renal, with SF-295 CNS, in the assay on OVCAR-3 ovarian, with HCC-2998 colon and in the assay with SF-268 CNS was above 100 µM each time. Besides, the TGI with HT29 colon, in the assay with SW-620 colon, in the assay on RPMI-8226 leukemia and in the assay on SK-MEL-5 melanoma was above 100 µM throughout.
For the compound `CN(C)Cc1cc(C(C)(C)C)cc(C2CCCCC2)c1O`, the TGI was determined as 24.1 µM with EKVX NSCLC; 29.9 µM with SN12C renal; 28.3 µM in the assay with OVCAR-3 ovarian; 27.8 µM in the assay on DU-145 prostate; 32.5 µM with SF-268 CNS; 13.5 µM in the assay on HT29 colon. The TGI turned out to be 30.2 µM in the assay with SW-620 colon and 27.4 µM in the assay with SK-MEL-5 melanoma.
Consider `C[N+](C)=c1nc(N2CCc3ccccc3C2)ss1`, for which the TGI in the assay with SN12C renal, in the assay with OVCAR-3 ovarian, in the assay with HCC-2998 colon, with SF-268 CNS, in the assay with SW-620 colon and in the assay on RPMI-8226 leukemia was above 100 µM throughout. This compound also showed a TGI in the assay on SK-MEL-5 melanoma above 100 µM.
For the compound `CCC1CN2CCC3(c4ccccc4)CC(C(=O)OC)=CC1C23` (stereo not drawn), the TGI is 34.1 µM in the assay with EKVX NSCLC; 30.4 µM with SN12C renal; 33.1 µM in the assay with SF-295 CNS; 33.8 µM with OVCAR-3 ovarian; 30.7 µM with HCC-2998 colon; 27.7 µM in the assay with SF-268 CNS. The TGI in the assay with HT29 colon is 31.7 µM; in the assay on SW-620 colon, 31.8 µM; in the assay with RPMI-8226 leukemia it was above 100 µM; with SK-MEL-5 melanoma, 30.2 µM.
On to `Cc1cc(Cl)ccc1C1OC(=O)c2c1ccc1ccccc21` (stereo not drawn), for which the TGI in the assay on EKVX NSCLC, with SN12C renal, in the assay on SF-295 CNS, with OVCAR-3 ovarian, in the assay on HCC-2998 colon and in the assay on SF-268 CNS was above 100 µM in each case. The TGI in the assay on HT29 colon, in the assay with SW-620 colon, with RPMI-8226 leukemia and in the assay with SK-MEL-5 melanoma was above 100 µM each time.
As to `CC(=O)c1cc(C)n2c1CS[C@@H]2c1ccccc1`, the TGI in the assay on EKVX NSCLC was above 100 µM; in the assay with SN12C renal, above 100 µM; in the assay on SF-295 CNS, above 100 µM; with OVCAR-3 ovarian, above 100 µM; with DU-145 prostate, 93.6 µM; in the assay with SF-268 CNS, above 100 µM. Also, the TGI with HT29 colon is above 100 µM; in the assay on SW-620 colon, above 100 µM; in the assay on RPMI-8226 leukemia it was 44 µM; with SK-MEL-5 melanoma, above 100 µM.
For the compound `COc1ccc(CCNC(=O)[C@H]2CCCC[C@@H]2CCO)cc1OC`, the TGI with EKVX NSCLC, in the assay on SN12C renal, in the assay on SF-295 CNS, in the assay with OVCAR-3 ovarian, in the assay on HCC-2998 colon and in the assay on DU-145 prostate was above 100 µM each time. For the same compound, the TGI in the assay on SF-268 CNS, with HT29 colon, in the assay with SW-620 colon, with RPMI-8226 leukemia and with SK-MEL-5 melanoma was above 100 µM each time.
On to `Cc1ncc([N+](=O)[O-])n1CCNC(=O)Cn1c([N+](=O)[O-])cnc1C`, for which the TGI in the assay with SN12C renal, in the assay with SF-295 CNS, with OVCAR-3 ovarian, with MDA-N, in the assay on HCC-2998 colon and in the assay with DU-145 prostate was above 100 µM throughout. Also, the TGI in the assay with SF-268 CNS, in the assay on HT29 colon, in the assay with SW-620 colon and in the assay on SK-MEL-5 melanoma was above 100 µM in each case.
Consider `CCOC(OC1=C(C#N)CCCC1)C(C)[Se]c1ccccc1` (stereo not drawn), for which the TGI was above 100 µM in the assay on EKVX NSCLC; 89.9 µM in the assay on SN12C renal; above 100 µM in the assay on SF-295 CNS; above 100 µM in the assay on OVCAR-3 ovarian; above 100 µM in the assay with HCC-2998 colon; 46.6 µM with SF-268 CNS. In addition, the TGI with HT29 colon was above 100 µM; in the assay on RPMI-8226 leukemia, 84 µM; in the assay with SK-MEL-5 melanoma it was 55.6 µM.
As for `CCCCNC(=S)/N=C/c1c(O)c2ccccc2[nH]c1=O`, the TGI with EKVX NSCLC, in the assay with SN12C renal, in the assay on SF-295 CNS, in the assay with OVCAR-3 ovarian, with HCC-2998 colon and in the assay with SF-268 CNS was above 10 µM throughout. In addition, the TGI in the assay on HT29 colon, with SW-620 colon and in the assay with RPMI-8226 leukemia was above 10 µM throughout.
As for `O=C1NC2(CCN(CCCC3(c4ccc(F)cc4)OCCO3)CC2)Oc2ccccc21`, the TGI in the assay with EKVX NSCLC, in the assay with SN12C renal, in the assay on SF-295 CNS, in the assay on HCC-2998 colon, with DU-145 prostate and in the assay with SF-268 CNS was above 100 µM in each case. Also, the TGI with HT29 colon, in the assay on SW-620 colon, in the assay on RPMI-8226 leukemia and in the assay with SK-MEL-5 melanoma was above 100 µM each time.
As to `O=C(CC1C(=O)c2ccccc2C1=C1C(=O)c2ccccc2C1=O)c1ccccc1` (stereo not drawn), the TGI in the assay with EKVX NSCLC, in the assay with SN12C renal, in the assay on SF-295 CNS, with HCC-2998 colon, in the assay with SF-268 CNS and in the assay with HT29 colon was above 100 µM throughout. Moreover, the TGI in the assay with SW-620 colon, in the assay on RPMI-8226 leukemia and in the assay on SK-MEL-5 melanoma was above 100 µM each time.
In the case of `CC(CCCOC(c1ccccc1)(c1ccccc1)c1ccccc1)OC(=O)Nc1ccccc1` (stereo not drawn), the TGI with SN12C renal stood at 24.4 µM; in the assay on SF-295 CNS it was 25.3 µM; in the assay on OVCAR-3 ovarian it was 26.9 µM; with HCC-2998 colon, 27.3 µM; in the assay on SF-268 CNS, 25.9 µM; in the assay with HT29 colon, 25.8 µM. Further, the figures for the TGI in the assay on SW-620 colon, in the assay with RPMI-8226 leukemia and in the assay with SK-MEL-5 melanoma were 27.4 µM, 42.1 µM and 27.1 µM, respectively.
Regarding `O=C(NNC(=O)c1ccccc1O)c1ccc(O)cc1`, the TGI with EKVX NSCLC, with SN12C renal, in the assay on SF-295 CNS, with OVCAR-3 ovarian, in the assay on MDA-N and with DU-145 prostate was above 100 µM each time. Also, the TGI with SF-268 CNS, in the assay on HT29 colon, in the assay on SW-620 colon, in the assay with RPMI-8226 leukemia and in the assay with SK-MEL-5 melanoma was above 100 µM throughout.
